{"source": "ChEMBL document CHEMBL4334471", "about": "“Discovery of 1,8-disubstituted-[1,2,3]triazolo[4,5-c]quinoline derivatives as a new class of Hippo signaling pathway inhibitors” (Bioorg Med Chem Lett, 2019)", "key": {"Homo sapiens [1]": {"species_on_record": "Homo sapiens", "assay": "Inhibition of recombinant full length human Aurora A I31F mutant assessed as residual activity at 10 uM using LRRASLG as substrate incubated for 40 mins in presence of [gamma-33ATP] by scintillation counting based radiometry assay relative to control"}, "[2]": {"biological_target": "Calcium/calmodulin-dependent protein kinase type II subunit beta (Homo sapiens) (UniProt Q13554)", "assay": "Inhibition of recombinant human CaMK2beta (1 to 315 residues) assessed as residual activity at 10 uM using […] incubated for 40 mins in presence of [gamma-33ATP] by scintillation counting based radiometry assay relative to control"}, "[3]": {"biological_target": "CDK2/Cyclin A1 (Homo sapiens) (UniProt P24941+P78396)", "assay": "Inhibition of recombinant full length human CDK2/CyclinA assessed as residual activity at 10 uM using Histone H1 as substrate incubated for 40 mins in presence of [gamma-33ATP] by scintillation counting based radiometry assay relative to control", "format": "protein-complex assay"}, "[4]": {"biological_target": "CDK6/cyclin D3 (Homo sapiens) (UniProt P30281+Q00534)", "assay": "Inhibition of recombinant full length human CDK6/cyclinD3 assessed as residual activity at 10 uM using histone H1 as substrate incubated for 40 mins in presence of [gamma-33ATP] by scintillation counting based radiometry assay relative to control", "format": "protein-complex assay"}, "[5]": {"biological_target": "Cyclin-dependent kinase-like 2 (Homo sapiens) (UniProt Q92772)", "sequence (Q92772 whole entry)": "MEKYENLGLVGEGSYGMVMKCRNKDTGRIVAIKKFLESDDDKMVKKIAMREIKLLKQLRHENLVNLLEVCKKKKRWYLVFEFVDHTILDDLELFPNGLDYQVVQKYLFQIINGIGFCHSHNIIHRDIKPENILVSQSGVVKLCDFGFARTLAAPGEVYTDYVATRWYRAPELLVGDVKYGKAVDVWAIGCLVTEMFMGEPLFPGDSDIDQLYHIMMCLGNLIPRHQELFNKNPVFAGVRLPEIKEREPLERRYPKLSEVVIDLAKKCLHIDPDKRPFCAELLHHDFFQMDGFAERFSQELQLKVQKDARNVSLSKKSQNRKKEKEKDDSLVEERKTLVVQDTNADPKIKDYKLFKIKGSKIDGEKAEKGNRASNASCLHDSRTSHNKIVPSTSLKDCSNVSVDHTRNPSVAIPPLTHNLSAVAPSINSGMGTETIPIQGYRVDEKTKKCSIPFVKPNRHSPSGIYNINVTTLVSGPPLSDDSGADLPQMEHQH", "assay": "Inhibition of recombinant full length human CDKL2 assessed as residual activity at 10 uM in presence of [gamma-33ATP] by scintillation counting based radiometry assay relative to control"}, "[6]": {"biological_target": "Dual specificity tyrosine-phosphorylation-regulated kinase 3 (Homo sapiens) (UniProt O43781)", "assay": "Inhibition of recombinant human DYRK3 assessed as residual activity at 10 uM using RRRFRPASPLRGPP as substrate at 40 mins in presence of [gamma-33ATP] by scintillation counting based radiometry assay relative to control"}, "[7]": {"biological_target": "Ephrin type-A receptor 4 (Homo sapiens) (UniProt P54764)", "sequence (P54764 whole entry, the tested form may be a part)": "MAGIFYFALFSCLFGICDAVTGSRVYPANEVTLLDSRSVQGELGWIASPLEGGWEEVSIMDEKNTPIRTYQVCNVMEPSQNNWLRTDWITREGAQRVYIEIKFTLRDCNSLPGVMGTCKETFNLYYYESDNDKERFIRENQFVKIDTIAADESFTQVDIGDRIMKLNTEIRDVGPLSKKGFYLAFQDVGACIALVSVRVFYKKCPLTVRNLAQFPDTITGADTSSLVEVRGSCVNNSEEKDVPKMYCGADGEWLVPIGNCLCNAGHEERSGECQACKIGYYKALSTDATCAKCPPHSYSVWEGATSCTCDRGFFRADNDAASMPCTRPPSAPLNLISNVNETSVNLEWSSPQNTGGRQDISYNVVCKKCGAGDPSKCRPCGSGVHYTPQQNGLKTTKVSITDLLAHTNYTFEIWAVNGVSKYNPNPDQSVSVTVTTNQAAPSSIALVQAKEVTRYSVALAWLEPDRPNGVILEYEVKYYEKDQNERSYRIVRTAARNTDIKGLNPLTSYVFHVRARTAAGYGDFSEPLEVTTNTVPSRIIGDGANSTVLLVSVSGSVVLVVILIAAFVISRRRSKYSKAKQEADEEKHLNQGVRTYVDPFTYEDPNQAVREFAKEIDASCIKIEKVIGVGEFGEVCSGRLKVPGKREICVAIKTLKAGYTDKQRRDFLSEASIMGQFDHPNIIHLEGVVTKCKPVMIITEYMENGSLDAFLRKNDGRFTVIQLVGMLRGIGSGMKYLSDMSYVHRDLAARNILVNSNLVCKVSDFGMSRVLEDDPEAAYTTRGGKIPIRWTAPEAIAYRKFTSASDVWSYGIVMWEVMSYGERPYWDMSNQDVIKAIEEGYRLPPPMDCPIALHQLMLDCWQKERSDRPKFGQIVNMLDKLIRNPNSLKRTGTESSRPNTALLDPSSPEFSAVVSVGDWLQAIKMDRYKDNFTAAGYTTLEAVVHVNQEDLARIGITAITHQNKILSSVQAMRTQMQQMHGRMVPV", "assay": "Inhibition of recombinant human EphA4 (601 to 892 residues) assessed as residual activity at 10 uM using poly(Glu, Tyr) 4:1 as substrate at 40 mins in presence of [gamma-33ATP] by scintillation counting based radiometry assay relative to control"}, "[8]": {"biological_target": "Fibroblast growth factor receptor 2 (Homo sapiens) (UniProt P21802)", "sequence (P21802 22-821 limits assumed)": "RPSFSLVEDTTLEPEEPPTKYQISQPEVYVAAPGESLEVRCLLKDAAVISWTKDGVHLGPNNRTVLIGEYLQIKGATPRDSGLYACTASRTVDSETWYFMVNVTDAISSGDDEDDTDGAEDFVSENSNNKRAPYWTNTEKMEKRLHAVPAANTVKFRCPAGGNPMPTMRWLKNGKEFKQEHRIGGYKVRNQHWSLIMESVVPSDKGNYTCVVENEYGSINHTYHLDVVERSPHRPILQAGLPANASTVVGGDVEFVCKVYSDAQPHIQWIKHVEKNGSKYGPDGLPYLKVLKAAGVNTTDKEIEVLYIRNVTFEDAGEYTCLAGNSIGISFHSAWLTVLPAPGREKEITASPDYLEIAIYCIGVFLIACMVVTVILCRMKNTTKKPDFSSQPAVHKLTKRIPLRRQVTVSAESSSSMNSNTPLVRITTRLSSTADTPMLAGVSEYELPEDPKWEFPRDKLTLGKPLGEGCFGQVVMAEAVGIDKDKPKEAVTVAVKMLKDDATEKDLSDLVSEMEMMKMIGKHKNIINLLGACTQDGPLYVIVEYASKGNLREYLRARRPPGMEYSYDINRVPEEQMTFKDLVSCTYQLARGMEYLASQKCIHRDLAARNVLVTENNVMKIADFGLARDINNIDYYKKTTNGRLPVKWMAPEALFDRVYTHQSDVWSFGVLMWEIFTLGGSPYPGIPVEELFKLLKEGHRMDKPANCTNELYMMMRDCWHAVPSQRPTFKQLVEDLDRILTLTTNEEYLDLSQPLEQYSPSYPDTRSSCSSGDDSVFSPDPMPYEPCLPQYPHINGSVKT", "assay": "Inhibition of recombinant human FGFR2 (456 to 770 residues) assessed as residual activity at 10 uM using poly(Glu, Tyr) 4:1 as substrate at 40 mins in presence of [gamma-33ATP] by scintillation counting based radiometry assay relative to control"}, "[9]": {"biological_target": "Receptor-type tyrosine-protein kinase FLT3 (Homo sapiens) (UniProt P36888)", "assay": "Inhibition of recombinant human FLT3 (564 to end residues) assessed as residual activity at 10 uM using EAIYAAPFAKKK as substrate at 40 mins in presence of [gamma-33ATP] by scintillation counting based radiometry assay relative to control"}, "Homo sapiens [10]": {"species_on_record": "Homo sapiens", "assay": "Inhibition of recombinant human FLT4 V1128L/H1146R mutant (800 to end residues) assessed as residual activity at 10 uM using GGEEEEYFELVKKKK as substrate at 40 mins in presence of [gamma-33ATP] by scintillation counting based radiometry assay relative to control"}, "[11]": {"biological_target": "Macrophage colony-stimulating factor 1 receptor (Homo sapiens) (UniProt P07333)", "assay": "Inhibition of recombinant human FMS (538 to end residues) assessed as residual activity at 10 uM using KKKSPGEYVNIEF as substrate at 40 mins in presence of [gamma-33ATP] by scintillation counting based radiometry assay relative to control"}, "[12]": {"biological_target": "Rhodopsin kinase GRK1 (Homo sapiens) (UniProt Q15835)", "sequence (Q15835 whole entry)": "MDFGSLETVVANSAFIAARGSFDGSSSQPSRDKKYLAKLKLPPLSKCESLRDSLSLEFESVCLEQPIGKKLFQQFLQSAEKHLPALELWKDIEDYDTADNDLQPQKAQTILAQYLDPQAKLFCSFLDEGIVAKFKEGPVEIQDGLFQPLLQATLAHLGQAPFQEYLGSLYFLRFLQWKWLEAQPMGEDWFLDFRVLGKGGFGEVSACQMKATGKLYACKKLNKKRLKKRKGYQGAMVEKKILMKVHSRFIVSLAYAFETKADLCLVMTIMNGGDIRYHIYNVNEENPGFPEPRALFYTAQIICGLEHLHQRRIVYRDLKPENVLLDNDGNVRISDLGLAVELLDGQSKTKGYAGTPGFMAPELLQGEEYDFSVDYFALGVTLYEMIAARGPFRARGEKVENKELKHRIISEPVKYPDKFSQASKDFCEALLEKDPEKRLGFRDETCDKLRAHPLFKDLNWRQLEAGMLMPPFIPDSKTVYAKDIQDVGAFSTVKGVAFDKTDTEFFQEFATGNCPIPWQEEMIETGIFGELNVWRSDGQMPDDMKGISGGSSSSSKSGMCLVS", "assay": "Inhibition of recombinant full length human GRK1 assessed as residual activity at 10 uM using KKKKERLLDDRHD as substrate at 40 mins in presence of [gamma-33ATP] by scintillation counting based radiometry assay relative to control"}, "[13]": {"biological_target": "Eukaryotic translation initiation factor 2-alpha kinase 1 (Homo sapiens) (UniProt Q9BQI3)", "assay": "Inhibition of human HRI (140 to end residues) assessed as residual activity at 10 uM using RSRSRSRSRSRSR as substrate after 120 mins by [gamma-33ATP] radiometric assay relative to control"}, "[14]": {"biological_target": "Insulin-like growth factor 1 receptor (Homo sapiens) (UniProt P08069)", "sequence (P08069 31-736 limits assumed)": "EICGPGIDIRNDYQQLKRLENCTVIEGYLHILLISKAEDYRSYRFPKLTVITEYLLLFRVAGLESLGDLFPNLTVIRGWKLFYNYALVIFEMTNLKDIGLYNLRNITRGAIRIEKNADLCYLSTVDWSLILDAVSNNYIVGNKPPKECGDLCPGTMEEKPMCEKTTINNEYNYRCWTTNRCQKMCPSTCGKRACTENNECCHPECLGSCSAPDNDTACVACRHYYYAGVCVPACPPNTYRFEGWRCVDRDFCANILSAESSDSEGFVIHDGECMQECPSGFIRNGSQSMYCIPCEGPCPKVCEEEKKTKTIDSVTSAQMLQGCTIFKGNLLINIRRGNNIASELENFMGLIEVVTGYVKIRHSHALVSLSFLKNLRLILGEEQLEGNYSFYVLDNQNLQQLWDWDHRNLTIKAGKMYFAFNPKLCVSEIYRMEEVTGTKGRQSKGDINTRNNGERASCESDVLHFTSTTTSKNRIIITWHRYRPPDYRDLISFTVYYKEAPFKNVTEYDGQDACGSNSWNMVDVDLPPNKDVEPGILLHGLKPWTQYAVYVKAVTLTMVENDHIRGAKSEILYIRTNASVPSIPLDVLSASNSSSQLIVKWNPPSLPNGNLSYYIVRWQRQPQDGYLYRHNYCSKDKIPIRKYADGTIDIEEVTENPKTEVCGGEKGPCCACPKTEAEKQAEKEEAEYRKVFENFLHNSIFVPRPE", "sequence (P08069 741-1367 limits assumed)": "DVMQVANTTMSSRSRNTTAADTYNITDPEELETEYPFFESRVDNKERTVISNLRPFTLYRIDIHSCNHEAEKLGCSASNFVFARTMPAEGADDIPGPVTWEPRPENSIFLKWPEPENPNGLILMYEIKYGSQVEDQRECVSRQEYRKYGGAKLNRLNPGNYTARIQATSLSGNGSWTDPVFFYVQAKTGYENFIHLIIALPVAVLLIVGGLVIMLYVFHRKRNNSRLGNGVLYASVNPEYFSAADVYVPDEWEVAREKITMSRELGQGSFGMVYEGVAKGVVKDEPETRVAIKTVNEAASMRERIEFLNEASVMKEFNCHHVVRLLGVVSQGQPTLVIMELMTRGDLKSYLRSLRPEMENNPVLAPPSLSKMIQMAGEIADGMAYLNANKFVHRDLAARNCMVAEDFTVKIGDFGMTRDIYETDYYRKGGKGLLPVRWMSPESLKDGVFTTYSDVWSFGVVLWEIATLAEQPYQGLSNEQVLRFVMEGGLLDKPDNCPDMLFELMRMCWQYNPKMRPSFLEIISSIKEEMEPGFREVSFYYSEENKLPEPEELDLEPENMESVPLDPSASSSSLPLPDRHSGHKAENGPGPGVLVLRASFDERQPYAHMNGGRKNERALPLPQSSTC", "assay": "Inhibition of human IGF1R (959 to end residues) assessed as residual activity at 10 uM using KKKSPGEYVNIEFGF as substrate after 40 mins by [gamma-33ATP] radiometric assay relative to control"}, "[15]": {"biological_target": "Insulin-like growth factor 1 receptor (Homo sapiens) (UniProt P08069)", "assay": "Inhibition of human IGF1R activated (959 to end residues) assessed as residual activity at 10 uM using KKKSPGEYVNIEFG as substrate after 40 mins by [gamma-33ATP] radiometric assay relative to control"}, "[16]": {"biological_target": "MAP kinase-activated protein kinase 3 (Homo sapiens) (UniProt Q16644)", "assay": "Inhibition of recombinant human MAPKAPK3 (2 to end residues) assessed as residual activity at 10 uM using KKLNRTLSVA as substrate incubated for 40 mins in presence of [gamma-33ATP by scintillation counting based radiometry assay relative to control"}, "Homo sapiens [17]": {"species_on_record": "Homo sapiens", "assay": "Inhibition of recombinant human MARK1 T20S mutant (2 to end residues) assessed as residual activity at 10 uM using KKKVSRSGLYRSPSMPENLNRPR as substrate incubated for 40 mins in presence of [gamma-33ATP by scintillation counting based radiometry assay relative to control"}, "[18]": {"biological_target": "Serine/threonine-protein kinase MRCK alpha (Homo sapiens) (UniProt Q5VT25)", "assay": "Inhibition of recombinant human MRCKalpha (1 to 473 residues) assessed as residual activity at 10 uM using KKRNRTLTV as substrate incubated for 40 mins in presence of [gamma-33ATP by scintillation counting based radiometry assay relative to control"}, "[19]": {"biological_target": "Muscle, skeletal receptor tyrosine-protein kinase (Homo sapiens) (UniProt O15146)", "sequence (O15146 whole entry)": "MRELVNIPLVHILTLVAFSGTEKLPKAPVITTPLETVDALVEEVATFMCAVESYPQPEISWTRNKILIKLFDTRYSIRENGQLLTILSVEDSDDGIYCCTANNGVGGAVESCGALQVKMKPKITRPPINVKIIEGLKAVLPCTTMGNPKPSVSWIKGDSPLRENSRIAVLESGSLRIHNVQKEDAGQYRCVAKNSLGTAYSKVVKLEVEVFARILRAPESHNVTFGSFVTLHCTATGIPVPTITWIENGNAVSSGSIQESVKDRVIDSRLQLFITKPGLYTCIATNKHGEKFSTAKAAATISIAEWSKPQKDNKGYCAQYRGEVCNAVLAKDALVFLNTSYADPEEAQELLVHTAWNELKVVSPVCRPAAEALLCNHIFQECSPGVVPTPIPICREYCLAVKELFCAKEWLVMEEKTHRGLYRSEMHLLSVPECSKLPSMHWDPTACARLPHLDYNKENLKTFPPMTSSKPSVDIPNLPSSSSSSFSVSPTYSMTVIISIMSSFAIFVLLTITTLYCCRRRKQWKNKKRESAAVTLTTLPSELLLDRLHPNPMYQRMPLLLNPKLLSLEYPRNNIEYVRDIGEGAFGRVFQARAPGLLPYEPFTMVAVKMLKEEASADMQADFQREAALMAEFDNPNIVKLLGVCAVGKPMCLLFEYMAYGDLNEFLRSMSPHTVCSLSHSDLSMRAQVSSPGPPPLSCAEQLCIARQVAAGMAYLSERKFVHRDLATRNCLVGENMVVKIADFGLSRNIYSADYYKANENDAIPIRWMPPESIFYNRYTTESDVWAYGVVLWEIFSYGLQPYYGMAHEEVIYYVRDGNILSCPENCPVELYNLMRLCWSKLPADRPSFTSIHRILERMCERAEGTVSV", "assay": "Inhibition of recombinant human MUSK (530 to end residues) assessed as residual activity at 10 uM using myelin basic protein as substrate measured after 40 mins in presence of [gamma33P]ATP by scintillation counting based radiometry assay relative to control"}, "Homo sapiens [20]": {"species_on_record": "Homo sapiens", "assay": "Inhibition of recombinant full length human PRAK R291E mutant assessed as residual activity at 10 uM using KKLRRTLSVA as substrate incubated for 40 mins in presence of [gamma33P]ATP by scintillation counting based radiometry assay relative to control"}, "[21]": {"biological_target": "Tyrosine-protein kinase ZAP-70 (Homo sapiens) (UniProt P43403)", "assay": "Inhibition of recombinant full length human ZAP70 assessed as residual activity at 10 uM using poly(Glu, Tyr) 4:1 as substrate incubated for 40 mins in presence of [gamma33P]ATP by scintillation counting based radiometry assay relative to control"}, "Homo sapiens [22]": {"species_on_record": "Homo sapiens", "assay": "Inhibition of recombinant human full length PI3K p110/p85 assessed as residual activity at 10 uM using phosphatidylinositol-4, 5-bisphosphate as substrate measured after 40 mins by fluorescence assay relative to control"}}}
{"smiles": "C[C@@H](c1ccccc1)n1nnc2cnc3ccc(-c4cnc5[nH]ccc5c4)cc3c21", "values": [{"measurement": "Activity", "setting": "Homo sapiens [1]", "value": 69, "unit": "%"}, {"measurement": "Activity", "setting": "[2]", "value": 85, "unit": "%"}, {"measurement": "Activity", "setting": "[3]", "value": 63, "unit": "%"}, {"measurement": "Activity", "setting": "[4]", "value": 92, "unit": "%"}, {"measurement": "Activity", "setting": "[5]", "value": 56, "unit": "%"}, {"measurement": "Activity", "setting": "[6]", "value": 79, "unit": "%"}, {"measurement": "Activity", "setting": "[7]", "value": 81, "unit": "%"}, {"measurement": "Activity", "setting": "[8]", "value": 32, "unit": "%"}, {"measurement": "Activity", "setting": "[9]", "value": 28, "unit": "%"}, {"measurement": "Activity", "setting": "Homo sapiens [10]", "value": 13, "unit": "%"}, {"measurement": "Activity", "setting": "[11]", "value": 21, "unit": "%"}, {"measurement": "Activity", "setting": "[12]", "value": 87, "unit": "%"}, {"measurement": "Activity", "setting": "[13]", "value": 91, "unit": "%"}, {"measurement": "Activity", "setting": "[14]", "value": 50, "unit": "%"}, {"measurement": "Activity", "setting": "[15]", "value": 79, "unit": "%"}, {"measurement": "Activity", "setting": "[16]", "value": 76, "unit": "%"}, {"measurement": "Activity", "setting": "Homo sapiens [17]", "value": 76, "unit": "%"}, {"measurement": "Activity", "setting": "[18]", "value": 105, "unit": "%"}, {"measurement": "Activity", "setting": "[19]", "value": 74, "unit": "%"}, {"measurement": "Activity", "setting": "Homo sapiens [20]", "value": 87, "unit": "%"}, {"measurement": "Activity", "setting": "[21]", "value": 150, "unit": "%"}, {"measurement": "Activity", "setting": "Homo sapiens [22]", "value": "3 to 9", "unit": "%"}]}
